Data reported in ChEMBL document CHEMBL5537201, “Discovery of Unique Bis-Substituted Aromatic Amide Derivatives as Novel Highly Potent Antibiotics for Combating Methicillin-Resistant Staphylococcus aureus (MRSA)” (J Med Chem, 2024).
≈ marks a conversion by molar mass, not a printed value. Calls of active or inactive are those of the source. The calls are words filed in the database; no cut-off is given here.

Assays:
Staphylococcus aureus [1] = test: Antimicrobial activity against methicillin resistant Staphylococcus aureus clinical isolate MRS273 assessed as reduction in bacterial growth incubated for 24 hrs by two-fold broth dilution method; assay type: functional
Streptomyces albus = test: Antimicrobial activity against Streptomyces albus SHBC D11158 assessed as reduction in bacterial growth incubated for 24 hrs by two-fold broth dilution method; assay type: functional
[2] = Selectivity index, ratio of IC50 for African green monkey Vero E6 cells to MIC for Staphylococcus aureus ATCC6538; assay type: toxicity; settings: read-out: Selectivity Index
Staphylococcus aureus [3] = test: Antimicrobial activity against methicillin resistant Staphylococcus aureus clinical isolate MRS70 assessed as reduction in bacterial growth incubated for 24 hrs by two-fold broth dilution method; assay type: functional
Staphylococcus aureus [4] = test: Antimicrobial activity against methicillin resistant Staphylococcus aureus clinical isolate MRS23 assessed as reduction in bacterial growth incubated for 24 hrs by two-fold broth dilution method; assay type: functional
Staphylococcus aureus [5] = test: Antimicrobial activity against methicillin resistant Staphylococcus aureus clinical isolate MRS1 assessed as reduction in bacterial growth incubated for 24 hrs by two-fold broth dilution method; assay type: functional
Staphylococcus aureus [6] = test: Antimicrobial activity against methicillin resistant Staphylococcus aureus clinical isolate MRS84 assessed as reduction in bacterial growth incubated for 24 hrs by two-fold broth dilution method; assay type: functional
Staphylococcus aureus [7] = test: Antimicrobial activity against methicillin resistant Staphylococcus aureus clinical isolate MRS108 assessed as reduction in bacterial growth incubated for 24 hrs by two-fold broth dilution method; assay type: functional
Staphylococcus aureus [8] = test: Antimicrobial activity against Staphylococcus aureus N315 assessed as reduction in bacterial growth incubated for 24 hrs by two-fold broth dilution method; assay type: functional
Staphylococcus aureus [9] = test: Antimicrobial activity against Staphylococcus aureus ATCC6538 assessed as reduction in bacterial growth incubated for 24 hrs by two-fold broth dilution method; assay type: functional
Staphylococcus aureus [10] = test: Induction of drug resistance in Staphylococcus aureus ATCC6538 assessed as change in MIC measured after 10 passages; assay type: functional
[11] = Cytotoxicity against HEK293 cells assessed as reduction in cell viability measured after 24 hrs by CCK-8 method; assay type: toxicity, cell-based; settings: human
[12] = Cytotoxicity against African green monkey Vero E6 cells assessed as reduction in cell viability measured after 24 hrs by CCK-8 method; assay type: toxicity, cell-based, Chlorocebus sabaeus, Vero C1008
Staphylococcus aureus [13] = test: Antimicrobial activity against methicillin resistant Staphylococcus aureus clinical isolate MRS153 assessed as reduction in bacterial growth incubated for 24 hrs by two-fold broth dilution method; assay type: functional
[14] = Cytotoxicity against human HaCaT cells assessed as reduction in cell viability measured after 24 hrs by CCK-8 method; assay type: toxicity, cell-based
Staphylococcus aureus [15] = test: Antimicrobial activity against methicillin resistant Staphylococcus aureus clinical isolate MRS152 assessed as reduction in bacterial growth incubated for 24 hrs by two-fold broth dilution method; assay type: functional
Staphylococcus aureus [16] = test: Antimicrobial activity against methicillin resistant Staphylococcus aureus clinical isolate MRS97 assessed as reduction in bacterial growth incubated for 24 hrs by two-fold broth dilution method; assay type: functional
A549 = test: Cytotoxicity against human A549 cells assessed as reduction in cell viability measured after 24 hrs by CCK-8 method; assay type: functional, cell-based; settings: A549, 24 h
Staphylococcus aureus [17] = test: Antimicrobial activity against methicillin resistant Staphylococcus aureus clinical isolate MRS121 assessed as reduction in bacterial growth incubated for 24 hrs by two-fold broth dilution method; assay type: functional
HeLa = test: Cytotoxicity against human HeLa cells assessed as reduction in cell viability measured after 24 hrs by CCK-8 method; assay type: functional, cell-based
Staphylococcus hominis = test: Antimicrobial activity against methicillin-resistant Staphylococcus hominis assessed as reduction in bacterial growth incubated for 24 hrs by two-fold broth dilution method; assay type: functional
Staphylococcus aureus [18] = test: Antimicrobial activity against methicillin resistant Staphylococcus aureus clinical isolate MRS207 assessed as reduction in bacterial growth incubated for 24 hrs by two-fold broth dilution method; assay type: functional
[19] = Selectivity index, ratio of HC50 for rabbit Red blood cell to MIC for Staphylococcus aureus ATCC6538; assay type: toxicity; settings: red blood cells (erythrocytes), read-out: Selectivity Index
[20] = Hemolytic activity in rabbit Red blood cell assessed as hemolysis incubated for 1 hr by two-fold microdilution method; assay type: toxicity, cell-based, Oryctolagus cuniculus, Erythrocyte; settings: red blood cells (erythrocytes)
Staphylococcus aureus [21] = test: Antimicrobial activity against methicillin resistant Staphylococcus aureus clinical isolate MRS200 assessed as reduction in bacterial growth incubated for 24 hrs by two-fold broth dilution method; assay type: functional
Staphylococcus aureus [22] = test: Bactericidal activity against Staphylococcus aureus ATCC6538 assessed as reduction in survival rate at 5 to 10 times MIC measured after 30 to 120 mins by colony counting method relative to control; assay type: functional; settings: time 30-120 min

`O=C(CCC(F)(F)F)N(Cc1cc2ccccc2s1)c1cc(-c2ccco2)ccc1O` showed an MIC (Staphylococcus aureus [1]) of 3 µg/mL (≈ 6.73 µM), an MIC (Streptomyces albus) of 16 µg/mL (≈ 35.9 µM) and a selectivity ratio [2] of over 25. For the same compound, the MIC (Staphylococcus aureus [3]) was 6 µg/mL (≈ 13.5 µM), the MIC (Staphylococcus aureus [4]) was 2 µg/mL (≈ 4.49 µM) and the MIC (Staphylococcus aureus [5]) was 6 µg/mL (≈ 13.5 µM). The MIC (Staphylococcus aureus [6]) was 3 µg/mL (≈ 6.73 µM), the MIC (Staphylococcus aureus [7]) was 6 µg/mL (≈ 13.5 µM) and the MIC (Staphylococcus aureus [8]) was 1 µg/mL (≈ 2.24 µM). The MIC (Staphylococcus aureus [9]) was 2 µg/mL (≈ 4.49 µM), the Activity (Staphylococcus aureus [10]) was “inactive” and the IC50 at 24 h [11] was 15.4 µg/mL (≈ 34.6 µM). It also gave an IC50 at 24 h [12] of over 25 µg/mL, an MIC (Staphylococcus aureus [13]) of 2 µg/mL (≈ 4.49 µM) and an IC50 at 24 h [14] of over 25 µg/mL. It also gave an MIC (Staphylococcus aureus [15]) of 6 µg/mL (≈ 13.5 µM), an MIC (Staphylococcus aureus [16]) of 3 µg/mL (≈ 6.73 µM) and an IC50 (A549) of over 25 µg/mL. For the same compound, the MIC (Staphylococcus aureus [17]) was 6 µg/mL (≈ 13.5 µM), the IC50 (HeLa) was over 25 µg/mL and the MIC (Staphylococcus hominis) was 16 µg/mL (≈ 35.9 µM). It also gave an MIC (Staphylococcus aureus [18]) of 8 µg/mL (≈ 18 µM), a selectivity ratio [19] of over 1000 and an HC50 at 1 h [20] of 1640 µg/mL. It also gave an MIC (Staphylococcus aureus [21]) of 6 µg/mL (≈ 13.5 µM) and a Survival (Staphylococcus aureus [22]) of under 1%.
In the case of `COc1ccccc1-c1ccc(O)c(N(Cc2cc3ccccc3s2)C(=O)CCC(F)(F)F)c1`, the MIC (Staphylococcus aureus [1]) is reported as 3 µg/mL (≈ 6.18 µM), the MIC (Streptomyces albus) is reported as 16 µg/mL (≈ 33 µM) and the MIC (Staphylococcus aureus [3]) is reported as 16 µg/mL (≈ 33 µM). The MIC (Staphylococcus aureus [4]) was 16 µg/mL (≈ 33 µM), the MIC (Staphylococcus aureus [5]) was 16 µg/mL (≈ 33 µM) and the MIC (Staphylococcus aureus [6]) was 3 µg/mL (≈ 6.18 µM). The MIC (Staphylococcus aureus [7]) was 6 µg/mL (≈ 12.4 µM), the MIC (Staphylococcus aureus [8]) was 1 µg/mL (≈ 2.06 µM) and the MIC (Staphylococcus aureus [9]) was 1 µg/mL (≈ 2.06 µM). The MIC (Staphylococcus aureus [13]) was 16 µg/mL (≈ 33 µM), the MIC (Staphylococcus aureus [15]) was 6 µg/mL (≈ 12.4 µM) and the MIC (Staphylococcus aureus [16]) was 3 µg/mL (≈ 6.18 µM). The MIC (Staphylococcus aureus [17]) was 6 µg/mL (≈ 12.4 µM), the MIC (Staphylococcus hominis) was over 32 µg/mL and the MIC (Staphylococcus aureus [18]) was over 16 µg/mL. It also gave an MIC (Staphylococcus aureus [21]) of 16 µg/mL (≈ 33 µM).
Work on `O=C(CCC(F)(F)F)N(Cc1cc2ccccc2s1)c1cc(-c2ccc(C(F)(F)F)cc2)ccc1O` yielded an MIC (Staphylococcus aureus [1]) of 6 µg/mL (≈ 11.5 µM), an MIC (Streptomyces albus) of 8 µg/mL (≈ 15.3 µM) and a selectivity ratio [2] of 11. It also gave an MIC (Staphylococcus aureus [3]) of 6 µg/mL (≈ 11.5 µM), an MIC (Staphylococcus aureus [4]) of 16 µg/mL (≈ 30.6 µM) and an MIC (Staphylococcus aureus [5]) of 16 µg/mL (≈ 30.6 µM). It also gave an MIC (Staphylococcus aureus [6]) of 6 µg/mL (≈ 11.5 µM), an MIC (Staphylococcus aureus [7]) of 16 µg/mL (≈ 30.6 µM) and an MIC (Staphylococcus aureus [8]) of 2 µg/mL (≈ 3.82 µM). For the same compound, the MIC (Staphylococcus aureus [9]) was 0.5 µg/mL (≈ 0.955 µM), the Activity (Staphylococcus aureus [10]) was “inactive” and the IC50 at 24 h [11] was 2.79 µg/mL (≈ 5.33 µM). It also gave an IC50 at 24 h [12] of 5.55 µg/mL (≈ 10.6 µM), an MIC (Staphylococcus aureus [13]) of 6 µg/mL (≈ 11.5 µM) and an IC50 at 24 h [14] of 3.92 µg/mL (≈ 7.49 µM). The MIC (Staphylococcus aureus [15]) was 6 µg/mL (≈ 11.5 µM), the MIC (Staphylococcus aureus [16]) was 3 µg/mL (≈ 5.73 µM) and the IC50 (A549) was 3.61 µg/mL (≈ 6.9 µM). It also gave an MIC (Staphylococcus aureus [17]) of 6 µg/mL (≈ 11.5 µM), an IC50 (HeLa) of 5 µg/mL (≈ 9.55 µM) and an MIC (Staphylococcus hominis) of 8 µg/mL (≈ 15.3 µM). The MIC (Staphylococcus aureus [18]) was 16 µg/mL (≈ 30.6 µM), the selectivity ratio [19] was over 1000 and the HC50 at 1 h [20] was 5570 µg/mL. The MIC (Staphylococcus aureus [21]) was 16 µg/mL (≈ 30.6 µM).
